From article PMC2879362, “Design of Group IIA Secreted/Synovial Phospholipase A2 Inhibitors: An Oxadiazolone Derivative Suppresses Chondrocyte Prostaglandin E2 Secretion” (PLoS ONE, 2010)

Legend:
[1] = biological target: T1, human GIIAPLA2 (hGIIAPLA2) (Homo sapiens, UniProt P14555); assay: In vitro fluorimetric PLA2 assay (β-py-C10-PG substrate); assay type: biochemical; settings: 2 µM β-py-C10-PG, 1 ng/mL hGIIAPLA2
T1 construct: hGIIAPLA2 was prepared as previously described [33]; made in house
T1 sequence (P14555 21-144): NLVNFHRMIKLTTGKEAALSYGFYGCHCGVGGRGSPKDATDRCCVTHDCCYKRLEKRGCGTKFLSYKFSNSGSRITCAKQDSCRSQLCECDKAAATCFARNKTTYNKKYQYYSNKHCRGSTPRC
Procedure: (§1) The compounds C1-C8 were submitted to fluorimetric assay to determine their inhibitory potencies and selectivity towards human GIIAPLA2 (hGIIAPLA2) versus porcine group IB PLA2 (pGIBPLA2) (Table 2). GIBPLA2 is an enzyme of the same family as GIIAPLA2 (sPLA2) but is mainly involved in digestion of dietary phospholipids and is secreted by the pancreas. Lipophilicity parameters, log P, of these products are calculated by use of Rekker's fragmental data (Table 2). The molecules C1-C8 are specific inhibitors of hGIIAPLA2 because none inhibited pGIBPLA2 at the highest concentration tested (100 µM). Such selectivity implies that C1-C8 should not interfere with the digestion process.
(§2) Fatty-acid free BSA and pancreatic PLA2 were from Sigma. hGIIAPLA2 was prepared as previously described. The fluorescent substrate for PLA2 assay, 1-hexadecanoyl-2-(10-pyrenedecanoyl)-sn-glycero-3-phosphoglycerol, ammonium salt (β-py-C10-PG) was from Molecular Probes (Eugene). PLA2 activity was evaluated as previously described with β-py-C10-PG used as a substrate (2 µM final concentration). In a total volume of 1 mL, the standard reaction medium contained 50 mM Tris-HCl (pH 7.5), 500 mM NaCl, 1 mM EGTA, 2 µM β-py-C10-PG, 0.1% fatty-acid free BSA and 6 ng/mL pancreatic PLA2 or 1 ng/mL hGIIAPLA2. The fluorescence (λex = 342 nm and λem = 398 nm) of the enzymatic reaction medium was recorded for 3 min with use of a spectrofluorimeter LS 50 (Perkin-Elmer) equipped with a Xenon lamp. The reaction was initiated by the addition of CaCl2 (10 mM, final concentration). The increase in fluorescence was continuously recorded for 1 min, and PLA2 activity was calculated as previously described. When used, the inhibitor was added to the reaction medium after introduction of BSA. The activity is expressed in micromoles of fluorescent β-py-C10-PG hydrolyzed per min. The standard error of the mean of three independent experiments was less than 10%, which allows for the determination of the IC50 values (concentration of inhibitors producing 50% inhibition) of each compound.

[2] = biological target: T2, porcine group IB PLA2 (pGIBPLA2) (Sus scrofa, UniProt P00592); assay: as above; assay type: biochemical; settings: 2 µM β-py-C10-PG, 6 ng/mL pancreatic PLA2
T2 construct: purchased Sigma
Procedure: as §1, §2

T2 sequence (P00592 23-146): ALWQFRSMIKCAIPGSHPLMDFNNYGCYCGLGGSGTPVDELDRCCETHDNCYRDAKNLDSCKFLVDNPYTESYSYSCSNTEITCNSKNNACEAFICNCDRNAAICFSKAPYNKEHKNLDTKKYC

## O=c1[nH]c(Cc2ccc(OCCCCCOc3cc4ccccc4c4ccccc34)cc2)no1 [C8]
[1]
  IC50: 620 ± 150 nM
[2]
  IC50: > 100000 nM
